# From patent US4745124A, “Orally effective anti-hypertensive agents” (priority 1983, dated 1988)
# Read-outs that look alike come from different tables or passages of the source. No end group written: not given here. *: point of attachment. Bz = O=C(c1ccccc1)*
# What was measured:
# [1] = molecular target: T1, angiotensin converting enzyme (human urinary ACE) (Homo sapiens, UniProt P12821); assay: ACE activity assay, I50 (Example 216A); assay type: biochemical; details: Benzoyl-GlyHisLeu 1×10^-4 M, Hepes pH 8.0, 37° C, in vitro
# T1 construct: ACE purified from human urine; from tissue; host or cells: human urine (ultrafiltration and Sephacryl S-200, first eluting peak; prepared as in Ryan et al., Tissue and Cell 10, 555 (1978))
# T1 sequence (P12821 30-1232 limits assumed): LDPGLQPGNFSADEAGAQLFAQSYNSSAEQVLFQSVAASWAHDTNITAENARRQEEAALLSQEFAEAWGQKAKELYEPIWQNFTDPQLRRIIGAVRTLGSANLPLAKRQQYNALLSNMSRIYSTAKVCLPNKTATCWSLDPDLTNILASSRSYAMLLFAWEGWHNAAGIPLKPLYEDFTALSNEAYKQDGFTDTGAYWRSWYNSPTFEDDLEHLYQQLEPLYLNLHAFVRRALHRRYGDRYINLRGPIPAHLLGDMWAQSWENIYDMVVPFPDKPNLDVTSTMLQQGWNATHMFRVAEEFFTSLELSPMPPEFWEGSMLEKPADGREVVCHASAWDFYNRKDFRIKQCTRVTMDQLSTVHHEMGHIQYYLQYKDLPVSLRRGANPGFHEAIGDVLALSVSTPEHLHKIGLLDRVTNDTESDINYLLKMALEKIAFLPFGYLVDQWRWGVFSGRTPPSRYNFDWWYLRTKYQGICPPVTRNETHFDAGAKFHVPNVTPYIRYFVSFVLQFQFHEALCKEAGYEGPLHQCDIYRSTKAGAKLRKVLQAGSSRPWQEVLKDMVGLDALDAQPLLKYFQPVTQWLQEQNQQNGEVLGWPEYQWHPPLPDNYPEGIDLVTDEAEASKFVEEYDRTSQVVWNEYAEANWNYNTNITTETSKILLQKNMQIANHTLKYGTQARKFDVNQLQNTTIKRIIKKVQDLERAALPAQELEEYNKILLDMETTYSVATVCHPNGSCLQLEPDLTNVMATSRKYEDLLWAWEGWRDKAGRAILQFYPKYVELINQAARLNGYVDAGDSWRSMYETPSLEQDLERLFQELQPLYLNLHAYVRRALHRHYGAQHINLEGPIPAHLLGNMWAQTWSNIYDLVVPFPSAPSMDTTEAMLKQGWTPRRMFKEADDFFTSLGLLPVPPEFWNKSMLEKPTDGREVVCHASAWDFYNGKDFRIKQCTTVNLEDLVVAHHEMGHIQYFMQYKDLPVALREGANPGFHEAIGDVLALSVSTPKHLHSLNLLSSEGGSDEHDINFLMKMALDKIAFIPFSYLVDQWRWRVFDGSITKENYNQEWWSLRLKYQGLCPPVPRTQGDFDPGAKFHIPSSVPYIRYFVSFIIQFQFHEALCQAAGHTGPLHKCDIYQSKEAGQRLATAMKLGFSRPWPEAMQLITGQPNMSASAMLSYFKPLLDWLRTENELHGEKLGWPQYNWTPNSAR
# [2] = test system: pressor effects of angiotensin I; assay: intravenous effectiveness: blood pressure response to angiotensin I in anesthetized rats; assay type: in vivo, rat; details: for t1/2: recovery of one half of lost responsiveness to angiotensin I 400 ng/kg; for Blood Pressure Response to 400 ng/kg Angiotensin I: i.v. 2 μmol/kg, Ex. 232
# Procedure: (§1) Anesthetized rats were prepared as described in Example 228. After the responsiveness of a given rat to angiotensin I was established, the named compound at 2 μmol/kg, in a volume of 15 μl of 0.01N sodium bicarbonate, was injected via a femoral vein. At timed intervals, the effects of angiotensin I, 400 ng/kg, on mean arterial blood pressure were tested. Results are shown below:
# as §1, with “231.” for “228.”, “compound,” for “compound”
# Anesthetized rats were prepared as described in Example 239. The animals were administered the named compound via a femoral vein in 15 μl of 0.01N sodium bicarbonate, after the control response to 400 ng/kg of angiotensin I was measured. […] The time required for recovery of one half of the lost responsiveness to angiotensin I, following injection of the named compound, was designated t1/2. […] Results are shown for two dose levels:
# Anesthetized rats were prepared as described in Example 242. The named compound was administered intravenously via a femoral vein, at the stated dose, in 15 μl of 0.01N sodium bicarbonate. The response to intravenous administration was a rapid decrease in responsiveness to Angtiotensin I, 400 ng/kg, followed by a gradual recovery to the pretreatment level of responsiveness. The time required for recovery of one half the lost responsiveness to angiotensin I, following injection of the named compound, is designated t1/2. […] Results are shown for the three dose levels:
# The intravenous effectiveness of the named compound was examined by following the procedure described in Example 244 except that 1 μmole/kg of the drug was given intravenously. The results are shown below:
# The intravenous effectiveness of the named compound was examined by following the procedure described in Example 246 except that 1 μmole/Kg of the drug was given intravenously.
# [3] = test system: pressor effects of angiotensin I; assay: oral effectiveness: blood pressure response to angiotensin I in anesthetized rats; assay type: in vivo, rat; details: oral 20 μmol/kg
# Procedure: Rats (210-290 g body weight) were fasted overnight and then anesthetized with intraperitoneal pentobarbital, 50-60 mg/kg. Tracheostomy was performed and the animals were ventilated mechanically. A cannula was inserted into a femoral vein for injection of angiotensin I or II, and a second cannula was inserted into a common carotid artery for direct measurement of arterial blood pressure. Heparin, 1,000 units, was injected via the femoral vein to prevent coagulation. Blood pressure was measured with a pressure transducer connected to a polygraph. The rats were injected with 80 ng of angiotensin I or angiotensin II in 20 μl of 0.9 g % NaCl; an amount of antiotensin I or II sufficient to raise mean arterial blood pressure by 27-40 mm Hg. After the responsiveness of a given rat to angiotensins I and II was established, compound (I), at 2 or 5 mg/kg (drug dissolved in 0.5 ml of H2 O plus 10 μl of 1N NaHCO3), was given via a stomach tube. At timed intervals, the effects of 80 ng of angiotensin I or angiotensin II on mean arterial blood pressure were tested.
# Rats were prepared as described in Example 222. Compound (II) [N-benzoyl-L-phenylalanylthiopropanoyl)-L-proline] was given orally, via a stomach tube, at a dose of 12 mg/kg or 20 mg/kg. Compound (II) was dissolved in 0.5 ml of H2 O plus 10 μl of 1N NaHCO3. In all other respects, the experimental preparations were exactly as described in Example 222.
# Rats (210-290 g body weight) were fasted overnight and then anesthetized with intraperitoneal pentobarbital, 50-60 mg/kg. Tracheostomy was performed and the animals were ventilated mechanically. A cannula was inserted into a femoral vein for injection of angiotensin I or II, and a second cannula was inserted into a common carotid artery for direct measurement of arterial blood pressure. Heparin, 1,000 units, was injected via the femoral vein to prevent coagulation. Blood pressure was measured with a pressure transducer connected to a polygraph. The rats were injected with 160 ng of angiotensin I or 80 ng of angiotensin II in 20 μl of 0.9 g % NaCl; an amount of angiotensin I or II sufficient to raise mean arterial blood pressure by 27-40 mm Hg. After the responsiveness of a given rat to angiotensins I and II was established, compound (B) at 10 mg (drug dissolved in 0.5 ml of H2 O plus 10 μl of 1N NaHCO3), was given via a stomach tube. At timed intervals, the effects of 160 ng of angiotensin I or 80 ng of angiotensin II on mean arterial blood pressure were tested. Results are shown below:
# Rats (210-290 g body weight) were fasted overnight and then anesthetized with intraperitoneal pentobarbital, 50-60 mg/kg. Tracheostomy was performed and the animals were ventilated mechanically. A cannula was inserted into a femoral vein for injection of angiotensin I, and a second cannula was inserted into a common carotid artery for direct measurement of arterial blood pressure. Heparin, 1,000 units, was injected via the femoral vein to prevent coagulation. Blood pressure was measured with a pressure transducer connected to a polygraph. The rats were injected with 400 ng/kg of angiotensin I in 20 μl of 0.9 g % NaCl; an amount of angiotensin I sufficient to raise mean arterial blood pressure by 39 mm Hg. After the responsiveness of a given rat to angiotensin I was established, the named compound at 17 μmol/kg (drug dissolved in 0.15 ml of H2 O plus 10 μl of 1N NaHCO3), was given via a stomach tube. At timed intervals, the effects of 400 ng/kg of angiotensin I on mean arterial blood pressure were tested. Results are shown below:
# Rats (190-290 g body weight) were fasted overnight and then anesthetized with intraperitoneal pentobarbital, 50-60 mg/kg. Tracheostomy was performed and the animals were ventilated mechanically. A cannula was inserted into a femoral vein for injection of angtiotensin I, and a second cannula was inserted into a common carotid artery for direct measurement of arterial blood pressure. […]
# [4] = human urinary ACE, read-out: I50
molecule,measurement,setting,value
"O=C(NC(Cc1ccccc1)C(=O)SCCC(=O)N1CCC[C@H]1C(=O)O)c1ccccc1 (stereo partly drawn) [(III), 3-benzoylphenylalanylthio-propanoyl-L-proline]",IC50,[1]; [4],0.7 µM
"C[C@H](CSC(=O)[C@H](Cc1ccccc1)NC(=O)c1ccccc1)C(=O)N1CCC[C@H]1C(=O)O [Example 196, N-[3-(benzoyl-L-phenylalanylthio)-2-D-methyl-propanoyl]-L-proline]",IC50,[1]; [4],0.016 µM
"C[C@H](CSC(=O)[C@@H](Cc1ccccc1)NC(=O)c1ccccc1)C(=O)N1CCC[C@H]1C(=O)O [Example 197, N-[3-(benzoyl-D-phenylalanylthio)-2-D-methyl-propanoyl]-L-proline]",IC50,[1]; [4],0.009 µM
N[C@@H](CS)C(=O)O [L-cysteine],IC50,"[1]; I50, human urinary ACE",200 µM
O=C(O)[C@@H]1CCCN1 [L-proline],IC50,[1]; [4],1000 µM
C[C@H](CSC(=O)CNC(=O)c1ccccc1)C(=O)N1CCC[C@H]1C(=O)O [N-alpha-[3-(N-alpha-benzoylglycylthio)-2-D-methylpropanoyl]-L-proline],t1/2,[2]; i.v. 0.23 μmol/kg,26 min
same,t1/2,[2]; i.v. 0.7 μmol/kg,36 min
same,Blood Pressure Response to 400 ng/kg of Angiotensin I,"[3]; 1 min, Ex. 239",95 % of Control
same,Blood Pressure Response to 400 ng/kg of Angiotensin I,"[3]; 6 min, Ex. 239",95 % of Control
same,Blood Pressure Response to 400 ng/kg of Angiotensin I,"[3]; 11 min, Ex. 239",95 % of Control
same,Blood Pressure Response to 400 ng/kg of Angiotensin I,"[3]; 22 min, Ex. 239",92 % of Control
same,Blood Pressure Response to 400 ng/kg of Angiotensin I,"[3]; 28 min, Ex. 239",68 % of Control
same,Blood Pressure Response to 400 ng/kg of Angiotensin I,"[3]; 33 min, Ex. 239",61 % of Control
same,Blood Pressure Response to 400 ng/kg of Angiotensin I,"[3]; 39 min, Ex. 239",58 % of Control
same,Blood Pressure Response to 400 ng/kg of Angiotensin I,"[3]; 45 min, Ex. 239",47 % of Control
same,Blood Pressure Response to 400 ng/kg of Angiotensin I,"[3]; 60 min, Ex. 239",47 % of Control
same,Blood Pressure Response to 400 ng/kg of Angiotensin I,"[3]; 67 min, Ex. 239",45 % of Control
same,Blood Pressure Response to 400 ng/kg of Angiotensin I,"[3]; 74 min, Ex. 239",47 % of Control
same,Blood Pressure Response to 400 ng/kg of Angiotensin I,"[3]; 82 min, Ex. 239",47 % of Control
same,Blood Pressure Response to 400 ng/kg of Angiotensin I,"[3]; 92 min, Ex. 239",47 % of Control
same,Blood Pressure Response to 400 ng/kg of Angiotensin I,"[3]; 137 min, Ex. 239",55 % of Control
same,Blood Pressure Response to 400 ng/kg of Angiotensin I,"[3]; 142 min, Ex. 239",55 % of Control
same,Blood Pressure Response to 400 ng/kg of Angiotensin I,"[3]; 152 min, Ex. 239",47 % of Control
same,Blood Pressure Response to 400 ng/kg of Angiotensin I,"[3]; 185 min, Ex. 239",63 % of Control
same,Blood Pressure Response to 400 ng/kg of Angiotensin I,"[3]; 207 min, Ex. 239",79 % of Control
same,Blood Pressure Response to 400 ng/kg of Angiotensin I,"[3]; 230 min, Ex. 239",74 % of Control
C[C@H](CSC(=O)[C@H](Cc1ccccc1)NC(=O)[C@H](CCCCNC(=O)OC(C)(C)C)NC(=O)C1CCCC1)C(=O)N1CCC[C@H]1C(=O)O [N-alpha-[3-(N-alpha-cyclopentylcarbonyl-N-epsilon-tert-butyloxycarbonyl-L-lysyl-L-phenylalanylthio)-2-D-methylpropanoyl]-L-proline],IC50,[1]; [4],0.025 µM
C[C@H](CSC(=O)[C@H](Cc1ccccc1)NC(=O)OC(C)(C)C)C(=O)N1CCC[C@H]1C(=O)O [N-alpha-[3-(N-alpha-tert-butyloxycarbonyl-L-phenylalanylthio)-2-D-methylpropanoyl]-L-proline],Blood Pressure Response to 400 ng/kg Angiotensin I,[2]; 0.5 min,0 % of Control
same,Blood Pressure Response to 400 ng/kg Angiotensin I,[2]; 3 min,19 % of Control
same,Blood Pressure Response to 400 ng/kg Angiotensin I,[2]; 9 min,19 % of Control
same,Blood Pressure Response to 400 ng/kg Angiotensin I,[2]; 13 min,22 % of Control
same,Blood Pressure Response to 400 ng/kg Angiotensin I,[2]; 18 min,31 % of Control
same,Blood Pressure Response to 400 ng/kg Angiotensin I,[2]; 22 min,31 % of Control
same,Blood Pressure Response to 400 ng/kg Angiotensin I,[2]; 34 min,50 % of Control
same,Blood Pressure Response to 400 ng/kg Angiotensin I,[2]; 47 min,63 % of Control
same,Blood Pressure Response to 400 ng/kg Angiotensin I,[2]; 65 min,78 % of Control
same,Blood Pressure Response to 400 ng/kg Angiotensin I,[2]; 103 min,75 % of Control
same,Blood Pressure Response to 400 ng/kg Angiotensin I,[2]; 113 min,94 % of Control
same,Blood Pressure Response to 400 ng/kg of Angiotensin I,"[3]; 3 min, Ex. 233",100 % of Control
same,Blood Pressure Response to 400 ng/kg of Angiotensin I,"[3]; 11 min, Ex. 233",43 % of Control
same,Blood Pressure Response to 400 ng/kg of Angiotensin I,"[3]; 22 min, Ex. 233",27 % of Control
same,Blood Pressure Response to 400 ng/kg of Angiotensin I,"[3]; 29 min, Ex. 233",24 % of Control
same,Blood Pressure Response to 400 ng/kg of Angiotensin I,"[3]; 34 min, Ex. 233",22 % of Control
same,Blood Pressure Response to 400 ng/kg of Angiotensin I,"[3]; 51 min, Ex. 233",19 % of Control
O=C(N[C@@H](Cc1ccccc1)C(=O)O)c1ccccc1 [benzoyl-Phe],IC50,[1]; [4],400 µM
"N[C@@H](CCC(=O)N[C@@H](CS)C(=O)NCC(=O)O)C(=O)O [γ Glu--Cys--Gly (glutathione), γ Glu--Cys--Gly]",IC50,[1]; [4],40 µM
< Glu--Cys--Pro,IC50,[1]; [4],4 µM
Bz-Gly-Cys-Pro,IC50,[1]; [4],0.5 µM
Bz-Phe-Ala-Pro,IC50,[1]; [4],0.1 µM
Bz-Phe-Cys-Pro,IC50,[1]; [4],0.6 µM
Cys--Pro,IC50,[1]; [4],11 µM
Phe--Ala--Pro,IC50,[1]; [4],0.2 µM
acetyl-Cys--Pro,IC50,[1]; [4],5 µM
γ Glu--Cys--Pro,IC50,[1]; [4],11 µM
